Data reported in ChEMBL document CHEMBL4330132, “5-Keto-3-cyano-2,4-diaminothiophenes as selective maternal embryonic leucine zipper kinase inhibitors” (Bioorg Med Chem Lett, 2019).

Key:
[1] = target: Aurora kinase A (Homo sapiens) (UniProt O14965); experiment: Binding affinity to wild-type human partial length AURKA (E122 to K401 residues) expressed in mammalian expression system assessed as residual binding level at 1 uM by Kinomescan method relative to control
[2] = target: Ephrin type-B receptor 3 (Homo sapiens) (UniProt P54753); experiment: Binding affinity to wild-type human partial length EPHB3 (Q599 to T928 residues) expressed in bacterial expression system assessed as residual binding level at 1 uM by Kinomescan method relative to control
[3] = system: Proto-oncogene tyrosine-protein kinase receptor Ret (Homo sapiens), P07949 [V804M]; experiment: Binding affinity to human partial length RET V804M mutant (E713 to D1014 residues) expressed in bacterial expression system assessed as residual binding level at 1 uM by Kinomescan method relative to control
[4] = target: Serine/threonine-protein kinase tousled-like 1 (Homo sapiens) (UniProt Q9UKI8); experiment: Binding affinity to wild-type human partial length TLK1 (K447 to A754 residues) expressed in bacterial expression system assessed as residual binding level at 1 uM by Kinomescan method relative to control
[5] = target: Bone morphogenetic protein receptor type-1A (Homo sapiens) (UniProt P36894); experiment: Binding affinity to wild-type human partial length BMPR1A (Q214 to I532 residues) expressed in bacterial expression system assessed as residual binding level at 1 uM by Kinomescan method relative to control
[6] = target: Tyrosine-protein kinase Lck (Homo sapiens) (UniProt P06239); experiment: Binding affinity to wild-type human partial length LCK (R207 to P509 residues) expressed in bacterial expression system assessed as residual binding level at 1 uM by Kinomescan method relative to control
[7] = target: Non-receptor tyrosine-protein kinase TYK2 (Homo sapiens) (UniProt P29597); experiment: Binding affinity to wild-type human partial length TYK2 JH2 pseudokinase domain (G556 to D888 residues) expressed in mammalian expression system assessed as residual binding level at 1 uM by Kinomescan method relative to control
[8] = system: Epidermal growth factor receptor (Homo sapiens), P00533 [L858R]; experiment: Binding affinity to human partial length EGFR L858R mutant (R669 to V1011 residues) expressed in bacterial expression system assessed as residual binding level at 1 uM by Kinomescan method relative to control
[9] = target: Transient receptor potential cation channel subfamily M member 6 (Homo sapiens) (UniProt Q9BX84); experiment: Binding affinity to wild-type human partial length TRPM6 (Q1723 to I1998 residues) expressed in mammalian expression system assessed as residual binding level at 1 uM by Kinomescan method relative to control
[10] = target: Glycogen synthase kinase-3 alpha (Homo sapiens) (UniProt P49840); experiment: Binding affinity to wild-type human full length GSK3A (M1 to S483 residues) expressed in bacterial expression system assessed as residual binding level at 1 uM by Kinomescan method relative to control
[11] = target: Myosin-IIIb (Homo sapiens) (UniProt Q8WXR4); experiment: Binding affinity to wild-type human partial length MYO3B (M1 to D357 residues) expressed in bacterial expression system assessed as residual binding level at 1 uM by Kinomescan method relative to control
[12] = target: Serine/threonine-protein kinase/endoribonuclease IRE1 (Homo sapiens) (UniProt O75460); experiment: Binding affinity to wild-type human partial length ERN1 (S551 to E852 residues) expressed in mammalian expression system assessed as residual binding level at 1 uM by Kinomescan method relative to control
[13] = target: Phosphatidylinositol 5-phosphate 4-kinase type-2 beta (Homo sapiens) (UniProt P78356); experiment: Binding affinity to wild-type human full length PIP5K2B (M1 to T416 residues) expressed in bacterial expression system assessed as residual binding level at 1 uM by Kinomescan method relative to control
[14] = target: Mitogen-activated protein kinase 9 (Homo sapiens) (UniProt P45984); experiment: Binding affinity to wild-type human full length JNK2 (M1 to Q382 residues) expressed in mammalian expression system assessed as residual binding level at 1 uM by Kinomescan method relative to control
[15] = target: Serine/threonine-protein kinase TAO3 (Homo sapiens) (UniProt Q9H2K8); experiment: Binding affinity to wild-type human partial length TAOK3 (M1 to T316 residues) expressed in mammalian expression system assessed as residual binding level at 1 uM by Kinomescan method relative to control
[16] = target: Epidermal growth factor receptor (Homo sapiens) (UniProt P00533); experiment: Binding affinity to wild-type human partial length EGFR (R669 to V1011 residues) expressed in bacterial expression system assessed as residual binding level at 1 uM by Kinomescan method relative to control
[17] = target: Ribosomal protein S6 kinase alpha-4 (Homo sapiens) (UniProt O75676); experiment: Binding affinity to wild-type human partial length C-terminal RPS6KA4 kinase domain 2 (M375 to T705 residues) expressed in mammalian expression system assessed as residual binding level at 1 uM by Kinomescan method relative to control
[18] = system: Mast/stem cell growth factor receptor Kit (Homo sapiens), P10721 [V559D,T670I]; experiment: Binding affinity to human partial length KIT V559D/T670I double mutant (Y545 to D952 residues) expressed in bacterial expression system assessed as residual binding level at 1 uM by Kinomescan method relative to control
[19] = target: Serine/threonine-protein kinase Nek6 (Homo sapiens) (UniProt Q9HC98); experiment: Binding affinity to wild-type human full length NEK6 (M8 to T313 residues) expressed in bacterial expression system assessed as residual binding level at 1 uM by Kinomescan method relative to control
[20] = target: Mitogen-activated protein kinase kinase kinase kinase 2 (Homo sapiens) (UniProt Q12851); experiment: Binding affinity to wild-type human partial length MAP4K2 (M1 to G318 residues) expressed in mammalian expression system assessed as residual binding level at 1 uM by Kinomescan method relative to control
[21] = target: Cyclin-dependent kinase 17 (Homo sapiens) (UniProt Q00537); experiment: Binding affinity to wild-type human full length PCTK2 (M1 to F523 residues) expressed in bacterial expression system assessed as residual binding level at 1 uM by Kinomescan method relative to control
[22] = target: Tyrosine-protein kinase receptor TYRO3 (Homo sapiens) (UniProt Q06418); experiment: Binding affinity to wild-type human partial length TYRO3 (S497 to T814 residues) expressed in bacterial expression system assessed as residual binding level at 1 uM by Kinomescan method relative to control
[23] = target: Cytoplasmic tyrosine-protein kinase BMX (Homo sapiens) (UniProt P51813); experiment: Binding affinity to wild-type human full length BMX (M1 to H675 residues) expressed in bacterial expression system assessed as residual binding level at 1 uM by Kinomescan method relative to control
[24] = target: Mitogen-activated protein kinase kinase kinase 15 (Homo sapiens) (UniProt Q6ZN16); experiment: Binding affinity to wild-type human partial length MAP3K15 (T625 to L932 residues) expressed in mammalian expression system assessed as residual binding level at 1 uM by Kinomescan method relative to control

Phosphatidylinositol 5-phosphate 4-kinase type-2 beta (Homo sapiens), sequence (P78356 whole entry, the tested form may be a part): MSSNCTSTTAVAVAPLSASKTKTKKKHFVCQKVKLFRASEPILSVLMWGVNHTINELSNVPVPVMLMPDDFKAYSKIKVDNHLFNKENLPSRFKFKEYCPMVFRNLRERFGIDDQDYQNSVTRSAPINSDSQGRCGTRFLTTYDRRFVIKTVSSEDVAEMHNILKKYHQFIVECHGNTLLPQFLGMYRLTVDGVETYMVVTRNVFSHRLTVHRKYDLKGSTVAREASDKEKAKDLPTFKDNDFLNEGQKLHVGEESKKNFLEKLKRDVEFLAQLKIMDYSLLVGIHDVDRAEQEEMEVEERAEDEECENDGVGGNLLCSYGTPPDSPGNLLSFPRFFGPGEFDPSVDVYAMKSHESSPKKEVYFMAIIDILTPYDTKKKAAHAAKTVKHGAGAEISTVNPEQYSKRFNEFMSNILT
Tyrosine-protein kinase receptor TYRO3 (Homo sapiens), sequence (Q06418 whole entry, the tested form may be a part): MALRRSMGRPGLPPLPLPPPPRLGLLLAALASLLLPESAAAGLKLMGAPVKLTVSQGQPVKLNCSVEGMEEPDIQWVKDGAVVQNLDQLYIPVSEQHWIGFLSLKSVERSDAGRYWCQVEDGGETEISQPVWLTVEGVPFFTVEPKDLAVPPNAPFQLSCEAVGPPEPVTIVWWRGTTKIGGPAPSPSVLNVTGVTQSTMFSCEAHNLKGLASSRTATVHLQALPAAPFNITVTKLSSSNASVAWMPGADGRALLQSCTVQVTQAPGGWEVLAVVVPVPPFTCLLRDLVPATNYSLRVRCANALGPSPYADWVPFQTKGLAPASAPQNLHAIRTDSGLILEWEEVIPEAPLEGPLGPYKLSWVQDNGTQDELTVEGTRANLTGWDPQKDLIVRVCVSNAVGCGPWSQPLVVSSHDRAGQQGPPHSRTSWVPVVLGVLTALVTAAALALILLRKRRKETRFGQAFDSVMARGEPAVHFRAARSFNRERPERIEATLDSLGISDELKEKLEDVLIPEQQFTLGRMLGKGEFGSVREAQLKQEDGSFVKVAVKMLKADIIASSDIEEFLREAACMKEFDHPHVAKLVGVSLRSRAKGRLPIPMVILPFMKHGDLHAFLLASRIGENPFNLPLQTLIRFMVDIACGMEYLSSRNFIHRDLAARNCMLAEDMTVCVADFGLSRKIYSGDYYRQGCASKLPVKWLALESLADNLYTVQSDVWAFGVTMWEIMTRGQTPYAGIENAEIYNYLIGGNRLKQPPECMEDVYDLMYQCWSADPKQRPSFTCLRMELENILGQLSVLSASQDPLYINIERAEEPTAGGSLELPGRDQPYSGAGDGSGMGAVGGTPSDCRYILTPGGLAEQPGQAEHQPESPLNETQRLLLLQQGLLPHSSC
Mitogen-activated protein kinase kinase kinase kinase 2 (Homo sapiens), sequence (Q12851 whole entry, the tested form may be a part): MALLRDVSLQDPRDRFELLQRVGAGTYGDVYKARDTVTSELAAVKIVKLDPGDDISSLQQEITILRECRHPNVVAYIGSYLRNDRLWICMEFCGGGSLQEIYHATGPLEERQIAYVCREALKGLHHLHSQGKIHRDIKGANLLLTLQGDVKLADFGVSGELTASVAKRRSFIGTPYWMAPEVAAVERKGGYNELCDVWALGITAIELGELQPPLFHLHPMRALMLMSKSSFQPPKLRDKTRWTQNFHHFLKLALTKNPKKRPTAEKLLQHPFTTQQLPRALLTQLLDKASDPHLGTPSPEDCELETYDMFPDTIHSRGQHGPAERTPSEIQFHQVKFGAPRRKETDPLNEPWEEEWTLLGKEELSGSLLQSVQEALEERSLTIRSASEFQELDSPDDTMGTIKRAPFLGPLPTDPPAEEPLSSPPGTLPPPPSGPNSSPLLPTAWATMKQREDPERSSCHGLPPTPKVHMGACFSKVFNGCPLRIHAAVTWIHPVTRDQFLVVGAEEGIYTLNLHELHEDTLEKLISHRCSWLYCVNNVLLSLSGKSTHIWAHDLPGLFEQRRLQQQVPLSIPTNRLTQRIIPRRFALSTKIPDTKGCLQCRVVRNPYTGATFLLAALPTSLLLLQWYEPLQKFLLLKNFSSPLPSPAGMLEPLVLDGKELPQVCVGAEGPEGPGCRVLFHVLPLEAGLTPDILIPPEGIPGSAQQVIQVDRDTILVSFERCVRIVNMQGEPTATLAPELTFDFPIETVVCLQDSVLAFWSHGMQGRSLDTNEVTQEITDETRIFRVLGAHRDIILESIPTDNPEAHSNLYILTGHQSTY
Tyrosine-protein kinase Lck (Homo sapiens), sequence (P06239 2-509 limits assumed): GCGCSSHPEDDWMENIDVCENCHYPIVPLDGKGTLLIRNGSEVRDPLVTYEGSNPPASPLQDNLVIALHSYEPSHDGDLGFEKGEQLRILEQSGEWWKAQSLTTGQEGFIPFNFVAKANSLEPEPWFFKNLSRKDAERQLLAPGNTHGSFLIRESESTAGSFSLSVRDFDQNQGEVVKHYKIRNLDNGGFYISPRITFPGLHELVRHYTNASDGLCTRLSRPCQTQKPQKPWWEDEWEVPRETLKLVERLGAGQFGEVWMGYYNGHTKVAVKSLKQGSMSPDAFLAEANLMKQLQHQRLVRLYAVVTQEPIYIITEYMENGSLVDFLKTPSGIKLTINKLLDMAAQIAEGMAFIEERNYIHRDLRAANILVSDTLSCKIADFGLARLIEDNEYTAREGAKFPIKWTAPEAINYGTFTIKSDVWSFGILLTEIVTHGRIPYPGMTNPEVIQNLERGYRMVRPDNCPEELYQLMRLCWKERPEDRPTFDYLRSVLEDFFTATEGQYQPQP
Ephrin type-B receptor 3 (Homo sapiens), sequence (P54753 whole entry, the tested form may be a part): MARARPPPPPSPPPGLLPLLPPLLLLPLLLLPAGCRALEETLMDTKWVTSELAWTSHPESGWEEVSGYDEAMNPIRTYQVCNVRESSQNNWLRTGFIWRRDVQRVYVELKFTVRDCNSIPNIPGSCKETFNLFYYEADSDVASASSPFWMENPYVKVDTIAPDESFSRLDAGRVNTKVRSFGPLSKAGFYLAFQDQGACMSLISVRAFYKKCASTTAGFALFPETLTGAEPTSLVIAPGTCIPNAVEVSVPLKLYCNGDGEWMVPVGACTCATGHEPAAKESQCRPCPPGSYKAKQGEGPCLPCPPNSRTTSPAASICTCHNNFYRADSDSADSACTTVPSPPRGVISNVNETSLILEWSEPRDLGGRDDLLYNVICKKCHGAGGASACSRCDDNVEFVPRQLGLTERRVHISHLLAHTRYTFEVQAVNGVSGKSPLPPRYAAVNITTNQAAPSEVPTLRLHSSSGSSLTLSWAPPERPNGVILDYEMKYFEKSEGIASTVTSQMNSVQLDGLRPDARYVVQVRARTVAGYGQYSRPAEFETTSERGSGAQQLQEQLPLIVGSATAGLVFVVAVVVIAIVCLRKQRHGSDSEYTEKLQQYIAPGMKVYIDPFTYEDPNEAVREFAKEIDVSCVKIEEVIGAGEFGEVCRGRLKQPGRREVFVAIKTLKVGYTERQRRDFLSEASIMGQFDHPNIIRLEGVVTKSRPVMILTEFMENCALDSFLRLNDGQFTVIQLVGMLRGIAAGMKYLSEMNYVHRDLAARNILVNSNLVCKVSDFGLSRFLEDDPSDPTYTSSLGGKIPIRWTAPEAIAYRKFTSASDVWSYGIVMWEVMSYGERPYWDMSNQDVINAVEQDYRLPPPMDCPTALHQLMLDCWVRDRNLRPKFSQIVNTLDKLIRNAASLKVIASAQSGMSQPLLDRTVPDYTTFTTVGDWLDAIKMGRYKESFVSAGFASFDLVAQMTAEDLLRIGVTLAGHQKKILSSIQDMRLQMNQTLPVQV
Cytoplasmic tyrosine-protein kinase BMX (Homo sapiens), sequence (P51813 whole entry, the tested form may be a part): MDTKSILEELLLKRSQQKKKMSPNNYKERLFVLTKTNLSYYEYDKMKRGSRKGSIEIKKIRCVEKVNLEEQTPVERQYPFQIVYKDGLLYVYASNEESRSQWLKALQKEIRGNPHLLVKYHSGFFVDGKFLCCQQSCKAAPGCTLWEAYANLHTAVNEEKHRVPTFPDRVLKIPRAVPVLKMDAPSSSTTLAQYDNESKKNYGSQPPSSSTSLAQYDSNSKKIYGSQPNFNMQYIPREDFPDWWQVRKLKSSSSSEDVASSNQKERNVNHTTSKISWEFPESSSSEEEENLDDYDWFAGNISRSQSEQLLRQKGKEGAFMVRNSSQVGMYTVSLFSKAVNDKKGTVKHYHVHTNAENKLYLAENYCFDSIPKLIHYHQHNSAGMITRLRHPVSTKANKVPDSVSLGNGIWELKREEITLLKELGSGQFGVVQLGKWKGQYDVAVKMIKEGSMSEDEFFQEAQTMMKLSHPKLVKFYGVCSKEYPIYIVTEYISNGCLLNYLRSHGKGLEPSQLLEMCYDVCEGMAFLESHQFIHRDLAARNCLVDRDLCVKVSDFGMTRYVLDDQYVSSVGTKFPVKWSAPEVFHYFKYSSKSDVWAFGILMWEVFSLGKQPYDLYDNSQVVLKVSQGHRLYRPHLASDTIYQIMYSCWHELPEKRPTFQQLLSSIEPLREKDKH
Serine/threonine-protein kinase tousled-like 1 (Homo sapiens), sequence (Q9UKI8 whole entry, the tested form may be a part): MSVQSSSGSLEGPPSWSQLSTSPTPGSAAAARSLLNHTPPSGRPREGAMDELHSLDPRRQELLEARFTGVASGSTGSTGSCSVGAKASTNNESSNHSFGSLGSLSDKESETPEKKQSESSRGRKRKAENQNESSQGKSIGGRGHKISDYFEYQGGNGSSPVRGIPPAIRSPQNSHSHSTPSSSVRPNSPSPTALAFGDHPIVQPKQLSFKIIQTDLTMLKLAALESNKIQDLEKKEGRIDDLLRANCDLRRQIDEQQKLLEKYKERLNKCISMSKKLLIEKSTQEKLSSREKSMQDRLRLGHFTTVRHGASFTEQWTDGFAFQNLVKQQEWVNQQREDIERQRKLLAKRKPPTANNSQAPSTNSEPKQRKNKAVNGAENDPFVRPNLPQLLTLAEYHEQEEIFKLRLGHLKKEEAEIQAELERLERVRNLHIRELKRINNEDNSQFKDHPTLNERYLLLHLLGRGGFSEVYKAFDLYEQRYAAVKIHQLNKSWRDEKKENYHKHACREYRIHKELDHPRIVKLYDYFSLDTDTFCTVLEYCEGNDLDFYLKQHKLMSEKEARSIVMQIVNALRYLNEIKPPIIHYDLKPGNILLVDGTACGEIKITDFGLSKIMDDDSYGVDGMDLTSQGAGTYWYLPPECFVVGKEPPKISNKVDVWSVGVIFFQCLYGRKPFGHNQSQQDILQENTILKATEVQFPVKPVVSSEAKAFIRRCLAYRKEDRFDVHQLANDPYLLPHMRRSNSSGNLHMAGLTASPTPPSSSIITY

Work on `CC(C)Nc1sc(C(=O)c2ccc(Cl)s2)c(N)c1C#N` yielded an Activity [1] of 100%, an Activity [2] of 94% and an Activity [3] of 94%. It also gave an Activity [4] of 100%, an Activity [5] of 100% and an Activity [6] of 93%. For the same compound, the Activity [7] was 100%, the Activity [8] was 95% and the Activity [9] was 92%. For the same compound, the Activity [10] was 100%, the Activity [11] was 98% and the Activity [12] was 100%. The Activity [13] was 100%, the Activity [14] was 100% and the Activity [15] was 100%. For the same compound, the Activity [16] was 89%, the Activity [17] was 79% and the Activity [18] was 87%. For the same compound, the Activity [19] was 100%, the Activity [20] was 100% and the Activity [21] was 87%. The Activity [22] was 92%, the Activity [23] was 100% and the Activity [24] was 100%.
